For data set [1], the target named is T1, human thioredoxin reductase (Homo sapiens, UniProt Q16881).
T1 construct: Thioredoxin reductase (TrxR) from human placenta were purified to homogeneity; from tissue; host or cells: human placenta
T1 sequence (Q16881 1-499 isoform Q16881-5): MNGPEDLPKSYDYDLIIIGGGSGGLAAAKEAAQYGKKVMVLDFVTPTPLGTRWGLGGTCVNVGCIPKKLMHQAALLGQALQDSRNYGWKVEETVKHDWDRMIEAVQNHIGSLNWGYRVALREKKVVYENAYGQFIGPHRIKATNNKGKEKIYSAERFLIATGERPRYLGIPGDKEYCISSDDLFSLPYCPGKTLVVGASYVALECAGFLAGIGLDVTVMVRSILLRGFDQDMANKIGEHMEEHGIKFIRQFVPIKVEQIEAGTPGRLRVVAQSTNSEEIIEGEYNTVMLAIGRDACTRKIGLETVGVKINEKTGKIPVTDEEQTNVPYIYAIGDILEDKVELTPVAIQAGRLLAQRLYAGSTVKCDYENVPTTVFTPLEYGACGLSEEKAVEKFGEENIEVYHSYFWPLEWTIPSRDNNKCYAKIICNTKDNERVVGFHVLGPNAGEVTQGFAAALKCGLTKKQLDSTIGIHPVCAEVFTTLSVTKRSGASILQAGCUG
Nature of the data set: Reduction of hydrogen peroxide by human thioredoxin reductase (hydrogen peroxide reductase activity). The class given is biochemical. The note with it: for effect on reaction rate of hydrogen peroxide reduction: 4.5 μM Trx; for turnover of enzyme (hydrogen peroxide reduction) / fold increase of hydrogen peroxide reductase activity: 0.5 mM hydrogen peroxide, 17 nM human TrxR; for fold increase of hydrogen peroxide reductase activity: versus enzyme alone. Here is the method: (§1) Measurements of thioredoxin reductase activity were performed in TF buffer (50 mM Tris-Cl, 1 mM EDTA, pH 7.5) with 100 μM NADPH and a given amount of Compound A. Reactions were carried out with addition of 5 or 10 μl of stock solution of thioredoxin reductase in a final volume of 0.55 ml. Cuvettes used as reference contained the same amount of DMSO as in the samples and also thioredoxin reductase. Absorbance of the control cuvette was automatically subtracted by the spectrophotometer. The reactions were followed at 340 nm.
[…] The absorbance at 340 nm was determined against a blank with 17 nM thioredoxin reductase but without hydrogen peroxide. As a result, with 0.50 mM hydroperoxide a turnover number of 30×min^−1 was calculated. Addition of 2 μM compound A stimulated the activity with the enzyme which increased its activity to a turnover of 450×min^−1 or 15-fold. […] Thus, Compound A acts to dramatically increase the hydrogen peroxide reductase activity of thioredoxin reductase and also acts as a thioredoxin peroxidase mimic.
Addition of 4.5 μM thioredoxin to 17 nM thioredoxin reductase stimulated the reduction of hydrogen peroxide. […] The same conditions as in FIG. 5 were applied with only 17 nM thioredoxin reductase (●) and addition of 4.5 μM Trx (Δ). Then […] was added to adjust the final compound A concentration to […].
Thus compound A increased activity of the enzyme with lower more physiologically relevant concentrations, and this increase was about 25-fold. […] Activity is expressed as the variation ratio per min, ΔA340/min. […]

In data set [2] the target is T1, human thioredoxin reductase. Described as above. The format is biochemical. The conditions noted are these: hydrogen peroxide 2 mM, TrxR 17 nM, human Trx 5 μM.
The target in data set [3] is T2, calf thymus thioredoxin reductase (Bos taurus, UniProt O62768).
T2 construct: Thioredoxin reductase (TrxR) from calf thymus or human placenta were purified to homogeneity; from tissue; host or cells: calf thymus
T2 sequence (O62768 1-499): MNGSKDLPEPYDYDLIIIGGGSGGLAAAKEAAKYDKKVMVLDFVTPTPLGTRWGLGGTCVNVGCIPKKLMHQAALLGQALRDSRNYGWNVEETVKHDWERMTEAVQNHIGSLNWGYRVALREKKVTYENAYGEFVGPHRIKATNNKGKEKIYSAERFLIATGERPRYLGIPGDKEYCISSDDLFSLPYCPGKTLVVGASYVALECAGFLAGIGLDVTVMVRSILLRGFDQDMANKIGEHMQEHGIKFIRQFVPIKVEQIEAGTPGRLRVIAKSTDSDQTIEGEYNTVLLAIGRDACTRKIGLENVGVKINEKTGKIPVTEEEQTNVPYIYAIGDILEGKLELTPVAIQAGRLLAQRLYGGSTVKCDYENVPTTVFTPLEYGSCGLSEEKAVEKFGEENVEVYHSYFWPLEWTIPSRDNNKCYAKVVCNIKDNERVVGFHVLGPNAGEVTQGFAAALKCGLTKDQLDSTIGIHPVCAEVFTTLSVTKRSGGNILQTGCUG
Nature of the data set: Reduction of DTNB by thioredoxin reductase. The class given is biochemical. As for the experimental part: (§2) The activity of thioredoxin reductase was determined in the insulin assay. A mixture of 100 mM potassium phosphate (pH 7.0), 2 mM NADPH, and 0.16 mM insulin was added with Compound A and thioredoxin, and then with thioredoxin reductase in a total volume of 0.55 ml for the reaction. The progress of reduction of insulin disulfides was followed at 340 nm. Generated sulfhydryl or selenol groups were measured at 412 nm by addition of 0.50 ml of a mixture of 6 M guanidine-HCl, 0.20 M Tris-Cl (pH 8.0), 1 mM DTNB and calculated using a molar extinction coefficient of 13,600 M^−1cm^−1. DTNB reducing activity of thioredoxin reductase by using NADPH was measured at 412 nm in 100 mM potassium phosphate (pH 7.0) containing 10 mM EDTA, 0.2 mM NADPH, 5 mM DTNB and 0.1 mg per ml of bovine serum albumin.
(§3) To test whether or not Compound A inhibited thioredoxin reductase, enzyme assays were performed.
(§4) Then 0.5 ml of a mixture containing 6 M guranidine HCl, 0.20 M Tris-HCl (pH 8.0) and 1 mM DTNB was added to stop the reaction and the absorbance at 412 nm was used to calculate the amount of SH-groups generated in insulin. In (B), 10 nM calf thymus thioredoxin reductase was preincubated with or without 50 μM compound A and 100 μM NADPH for 1 h. Then 10 μl of the resulting solution was added to 500 μl of a mixture of 0.1 M Tris-HCl (pH 8.0), 1 mM EDTA and 5 mM DTNB to determine activity at 412 nm. Activity is expressed as the amount of SH-groups generated (μM) after 3 min.

The target in data set [4] is T1, human thioredoxin reductase. Nature of the data set: Reduction of Compound A by human thioredoxin reductase (NADPH oxidation at 340 nm, selenol detection with DTNB). The format is biochemical. Here is the method:
as §1
Compound A absorbs at 340 nm with a 4,000 M^−1cm^−1 molar extinction coefficient, and N-phenyl-2-carboxamidobenzene selenol, the reduction product of selenol by a dithiol, has half the absorption (2000 M^−1cm^−1) at 340 nm. The formation of the compound A-selenol was confirmed by measuring absorption spectra in the presence or absence of excess DTT. In calculations of the formation of compound A-selenol, a molar extinction coefficient of 8,200 M^−1cm^−1 was used since oxidation of NADPH to NADP^+ yields 6,200 M^−1cm^−1.
Compound A 50 μM (●) or 100 μM (□) was dissolved in 0.55 ml of a solution containing 50 mM Tris-Cl, 1 mM EDTA (pH 7.5) and 100 μM NADPH, and mixed with 40 nM human thioredoxin reductase. Absorbance at 340 nm was measured and corrected against the blank value (with the same amounts of enzyme, but without compound A). The same experiments using 50 μm (●) and 100 μM (Δ) Compound A mixed with 17 nM enzyme were performed.
The reaction was fast since with 50 μM Compound A the reaction was complete after 1 min. […] When 6 M guanidine hydrochloride containing DTNB was added to the cuvette at 7 min, an absorbance at 412 nm of 0.400 was measured indicating formation of selenol groups. Compound A itself gave no reaction with DTNB. The reaction with 100 μM compound A was seemingly slower from the decrease in absorbance at 340 nm using 40 nM enzyme.

Data set [5] has as its target T2, calf thymus thioredoxin reductase. Nature of the data set: Trx-catalyzed insulin disulfide reduction assay. The format is biochemical. The note with it: for SH-group: 5 μM human Trx, 10 nM calf thymus thioredoxin reductase, 3 min, 20° C.; for Activity: relative to 0 μM = 100. Here is the method: as §2, §3, §4
Data set [6] concerns the target E.coli Trx-(SH)2 (Escherichia coli, UniProt P0AA25). Put plainly: Oxidation of E.coli Trx-(SH)2 by compound A determined by fluorescence spectroscopy. The class given is biochemical. The note with it: 0.1 μM Trx-(SH)2 mixed with 0.1 μM compound A, pH 7.5, 22° C. Here is the method: Protein fluorescence was measured with a thermostated SPEX-Fluoro Max instrument. Trx-(SH)2 was prepared from E.coli Trx-S2 640 μM which was incubated at room temperature for 20 min with 10 mM DTT. DTT was subsequently removed by gel chromatography (on a NAP-5 column (Pharmacia) using N2 equilibrated buffer). Trx-(SH)2 was mixed with Compound A dissolved in a total volume of 3 ml of a mixture (pH 7.5) of 0.1 M potassium phosphate and 1 mM EDTA, and fluorescence was immediately measured in the spectrofluorimeter at 22° C. Excitation of fluorescence was at 290 nm and emission spectra from 300 to 500 nm were recorded. Fluorescence at 340 nm was used to follow the oxidation of Trx-(SH)2 to record the rate of the reaction.
Mammalian and E.coli Trx have the same active site GPC and reactivity with disulfides. […] N2 equilibrated 0.1 M potassium phosphate was added with 0.1 μM (1.2 μg/ml) of E.coli Trx-(SH)2 and then with 1 mM EDTA (pH 7.5) to prepare a sample. Fluorescence of the sample was excited at 290 nm. The […] at the wavelength range from 300 to 500 nm was recorded. Then 0.1 μM of compound A was added and a spectrum was recorded. […] This is the fastest reaction for oxidation of reduced thioedoxin by a low molecular weight compound.

For data set [7], the target named is T1, human thioredoxin reductase. The conditions noted are these: human Trx-S2, comparison value, cited from earlier work.
The mark [8] stands for this setting: 2 μM compound A plus 4.5 μM human Trx.

Like-named read-outs stand apart in the source and are kept apart here. A value given as a limit tells only on which side of the number the result lay.

Chain of E.coli Trx-(SH)2 (P0AA25 whole entry): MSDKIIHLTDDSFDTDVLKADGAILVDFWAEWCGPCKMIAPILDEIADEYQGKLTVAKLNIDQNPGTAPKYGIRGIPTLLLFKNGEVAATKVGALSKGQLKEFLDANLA

With `O=c1c2ccccc2[se]n1-c1ccccc1` [Compound A, 2-phenyl-1,2-benzisoselenazol-3(2H)-one], the “effect on reaction rate of hydrogen peroxide reduction” value is given as “increased the reaction rate” in data set [1] (0.5 μM compound A, 17 nM thioredoxin reductase) and “stimulated strongly” in data set [1] (5.5 μM compound A, 17 nM thioredoxin reductase). Further, the “fold increase of enzyme activity at low hydrogen peroxide concentration” value in data set [1] (100 μM hydrogen peroxide, 17 nM thioredoxin reductase, 2 μM Compound A) is given as “about 25 fold”. Further, the results for the “turnover of enzyme (hydrogen peroxide reduction)” value in data set [1] (2 μM compound A) and in data set [1] (setting [8]) were 450 min⁻¹ and 900 min⁻¹, respectively. Further, the entries for the “fold increase of hydrogen peroxide reductase activity” value in data set [1] (setting [8]) and in data set [1] (2 μM compound A) were 30 fold and 15 fold, respectively. The “turnover of Compound A” value in data set [2] came to 23 min⁻¹. The same molecule returned an enzyme turnover in data set [2] (compound A) of 1328 min⁻¹. In addition, in data set [2] (same rate with 1, 2 and 5 μM compound A), the NADPH oxidation rate was 23 µM/min. Further, the “inhibition of thioredoxin reductase with DTNB as substrate” value in data set [3] (50 μM Compound A and 10 nM enzyme) is given as “No inhibition”. Moreover, the SH-group in data set [3] (50 μM Compound A preincubated with 10 nM enzyme and 100 μM NADPH for 1 h, after 3 min) came to 7.5 µM; in data set [5] (5 μM Compound A), 70.6 µM; in data set [5] (10 μM Compound A), 68.4 µM. In addition, the Activity in data set [3] (50 μM Compound A, preincubation 1 h, relative to 0 μM = 100) worked out at 103%; in data set [5] (5 μM Compound A), 89%; in data set [5] (10 μM Compound A), 88%. Further, in data set [3] (preincubation in the presence or absence of NADPH), the “inhibition of the enzyme after preincubation with compound A” value is given as “did not inhibit”. Moreover, the Kcal in data set [4] (15 nM enzyme, 5, 10 and 20 μM compound A) is 1000 ± 300 min⁻¹. The Michaelis-Menten constant (Km) (commonly the substrate concentration at which the rate is half of its maximum) in data set [4] (15 nM enzyme, 5, 10 and 20 μM compound A, read-out: Km-value as substrate for thioredoxin reductase) is less than 5 µM. Besides, the “time until reaction complete” value in data set [4] (50 μM Compound A, 40 nM human thioredoxin reductase, 100 μM NADPH) is recorded as 1 min. Besides, the “absorbance at 412 nm after DTNB addition (formation of selenol groups)” value in data set [4] (6 M guanidine hydrochloride containing DTNB added at 7 min, 50 μM Compound A, 40 nM enzyme) is reported as 0.400. Besides, the “effect in insulin disulfide reduction assay using thioredoxin and thioredoxin reductase” value in data set [5] is reported as “only a small effect”. For the same molecule, the “oxidation rate of Trx-(SH)2” value in data set [6] is more than 2e+07 M⁻¹ s⁻¹.

B1: human Trx-S2: oxidized human thioredoxin, protein substrate of thioredoxin reductase, used for comparison of Km and Kcal (protein, UniProt P10599 2-105, looked up)
Thioredoxin: VKQIESKTAFQEALDAAGDKLVVVDFSATWCGPCKMIKPFFHSLSEKYSNVIFLEVDVDDCQDVASECEVKCMPTFQFFKKGQKVGEFSGANKEKLEATINELV
modifications: oxidized
notes: oxidized human thioredoxin, protein substrate of thioredoxin reductase, used for comparison of Km and Kcal
As for B1, in data set [7], the Kcal is 3000 min⁻¹. Besides, the Km in data set [7] (read-out: Km-value as substrate for thioredoxin reductase) was 2.5 µM.

The values above are taken from patent publication US7671211B1, “Substrates for thioredoxin reductase” (priority 1999, dated 2010).
